Read-outs that look alike come from different tables or passages of the source.
Tests used:
[1] = test system: angiotensin converting enzyme (ACE); assay: ACE mRNA expression (RT-PCR, normalized to GAPDH) in LPS inflammation-induced H9c2 cells; format: cell-based, rat
Procedure: Specifically, LPS inflammation-induced H9c2 cells in Experimental Example 1-2 were treated with 10 or 25 µM Telmisartan and 10 or 50 µM Olmesartan, and then treated with 200 µl of chloroform together with 1 ml of TRIZol (Sigma, USA), gently mixed, and separated for 10 minutes, and then centrifuged at 4°C and 10,000 rpm for 10 minutes. After centrifugation, only the supernatant from the tube was taken and transferred to a new sterile tube, and the supernatant was treated with 500 µl of isopropanol to precipitate RNA. The precipitated RNA was centrifuged at 4°C, 10,000 rpm for 10 minutes, and then the supernatant except for the pellets in the tube was fully removed, and the RNA pellets were treated with 500 µl of 75% ethyl alcohol and thoroughly washed. The washed pellets were centrifuged at 4°C, 10,000 rpm for 5 minutes, and then the supernatant except the pellets was fully removed. The tube containing the pellets from which the supernatant had been cleanly removed was treated with diethyl pyrocarbonate (DEPC)-water and stored at - 80°C for use in an RT-PCR experiment.
RT-PCR was performed by synthesizing cDNA from mRNA using an RT-PCR kit containing DNA polymerase, buffer, dNTP, and tracking dye, and then using ACE primers in Table 1 under the conditions in Table 2 for 35 cycles. The PCR products were electrophoresed on a […] agarose gel, identified using a UV transilluminator, and expressed as normalized to GAPDH for quantitative comparison.
In order to confirm the effect of each combination or single substance on the mRNA expression of ACE, the experimental samples in Table 3 were treated to H9c2 cells induced with LPS inflammation in Experimental Example 1-2, respectively, and then the mRNA expression of ACE was evaluated in the same manner as in Experimental Example 1-3.

[2] = Drug-drug compatibility test under accelerated stability conditions; format: physicochemical; details: for flexible substance / content (SGLT-2 inhibitor) / content (ARB): HPLC; for content (SGLT-2 inhibitor): second figure of the cell; for property: color, clumping, etc.; for content (ARB): first figure of the cell
Procedure: Specifically, after storing a mixture of ARB and SGLT-2 inhibitor for 2 weeks under accelerated stability test conditions (40 ± 2°C/75 ± 5% relative humidity), changes in the contents of each ingredient and flexible substance and changes in properties (color, clumping, etc.) were analyzed. Olmesartan, Valsartan, and Telmisartan were used as ARBs, and Empagliflozin, Dapagliflozin (Dapagliflozin propanediol monohydrate), and Canagliflozin were used as SGLT-2 inhibitors.

[3] = repeated oral, steady state
A549 cells = assay: Cell survival rate (MTT) in A549 cells; format: cell-based; details: after 24 hours and 48 hours, up to a concentration of 25 µM
Procedure: (§1) Specifically, A549 cells were obtained from the Korean Cell Line Bank (KCLB) and subcultured using a RPMI-1640 medium supplemented with 10% fetal bovine serum (FBS) and 1% Penicillin, and MDCK cells were obtained from ATCC and subcultured using a DMEM medium supplemented with 10% FBS. 200 µl each of the A549 cells and MDCK cells incubated in an incubator under 37°C and 5% CO2 conditions were dispensed at 2 × 10^4 cells/well in a 96-well plate, and then a control group was treated with 100 µl of the medium, and experimental groups were treated with 1.25, 25, 50, and 100 µM of Telmisartan or Olmesartan, respectively. After 24 hours and 48 hours, all of the wells were treated with 50 µl each of a 2 mg/ml MTT reagent and incubated in an incubator for 3 hours, and then each well was added with 500 µl of DMSO, wrapped in foil, stirred for 30 minutes at room temperature, and the absorbance was measured at 570 nm to obtain the cell survival rate.

[4] = test system: angiotensin converting enzyme (ACE); assay: ACE protein expression (Human ACE ELISA) in LPS inflammation-induced H9c2 cells; format: cell-based, rat
Procedure: Specifically, H9c2 cells as a human cardiac cell line were obtained and used from the Korea Cell Line Bank (KCLB 40071, Korea) and incubated and prepared in a DMEM medium supplemented with 10% FBS and 1% antibiotic-antimycotic (10 units/ml penicillin, 100 µg/ml streptomycin, 0.25 µg/ml amphotericin) under 37°C and 5% CO2 conditions.
To confirm the effect on ACE activity, the prepared H9c2 cells were treated with 2.5 µg/ml of Lipopolysaccharide (LPS), which was 2.5 times more than the amount used in conventional inflammation-related experiments, to induce inflammation, thereby setting the optimized conditions for confirming ACE expression. […]
To perform the ELISA assay, 10,000 pg/ml, 5,000 pg/ml, 2,500 pg/ml, 1,250 pg/ml, 625 pg/ml, 312 pg/ml, and 156 pg/ml of Human ACE standard solutions and a standard dilution buffer were added by 0.1 ml to each well of an antibody-coated 96-well plate. […] Thereafter, each well was added with 90 µl of the prepared TMB solution, incubated for 20 to 25 minutes in a dark room at 37°C, and then treated with each 0.1 ml of the prepared TMB stop solution to stop an ACE ELISA reaction, and the OD absorbance at 450 nm was read in a microplate reader within 30 minutes, and the relative OD450 was derived using the following Equation. […]

MDCK cells = assay: Cell survival rate (MTT) in MDCK cells; format: cell-based; details: after 24 hours and 48 hours, up to a concentration of 25 µM
Procedure: as §1

[5] = 4-week repeated oral administration toxicity; format: in vivo, Sprague-Dawley rats; details: daily for 4 weeks
Procedure: Specifically, groups were configured in the same manner as in Experimental Example 4-1, and the combinations were administered orally daily for 4 weeks to 5 male and 5 female 6-week-old Sprague-Dawley rats per group. During the test, general symptom observation, blood test, and body weight measurement were performed, and after the observation period ended, the rats were euthanized and autopsied.

[6] = experimental samples at the concentrations of Table 3
[7] = Acceleration 1 week, 40 ± 2°C/75 ± 5% relative humidity
[8] = Acceleration 2 week, 40 ± 2°C/75 ± 5% relative humidity
[9] = alone, low-concentration administration groups of 2.5 µM to 10 µM

With OC[C@H]1O[C@@H](c2ccc(Cl)c(Cc3ccc(O[C@H]4CCOC4)cc3)c2)[C@H](O)[C@@H](O)[C@@H]1O [Comparative Example 8, Empagliflozin] the “mRNA expression of ACE” value [1, 6] was “decrease below the normal level”.

For Cc1ccc([C@@H]2O[C@H](CO)[C@@H](O)[C@H](O)[C@H]2O)cc1Cc1ccc(-c2ccc(F)cc2)s1 [Com. Ex. 21, Canagliflozin], the flexible substance [2, 7] was 1.0 or less, the “content (SGLT-2 inhibitor)” value [2, 7] was 95.2% and the property [2, 7] was “unsuitable”. The flexible substance [2, 8] was 5.0 or more, the “content (SGLT-2 inhibitor)” value [2, 8] was 89.2% and the property [2, 8] was “unsuitable”. For the same molecule, the flexible substance ([2]; Initial) was 0.1 or less, the “content (SGLT-2 inhibitor)” value ([2]; Initial) was 99.5% and the property ([2]; Initial) was “suitable”.

In the case of CCCc1nc2c(C)cc(-c3nc4ccccc4n3C)cc2n1Cc1ccc(-c2ccccc2C(=O)O)cc1 [Telmisartan, 4'-[(1,4'-dimethyl-2'-propyl[2,6'-bi-1H-benzimidazol]-1'-yl)methyl][1,1'-biphenyl]-2-carboxylic acid], the “Cmax T/R ratio” value ([3]; Telmisartan 80 mg in the presence of Dapagliflozin 10 mg, 90% confidence interval 0.99 to 1.43) is reported as 1.19, the “AUC T/R ratio” value ([3]; Telmisartan 80 mg in the presence of Dapagliflozin 10 mg, 90% confidence interval 1.01 to 1.18) is reported as 1.09 and the cell survival rate (A549 cells) is reported as “no effect”. The “ACE expression inhibition effect” value ([4]; 25 µM treatment group) was “the best”, the “ACE expression inhibition effect” value ([4]; all treatment concentrations (10, 25, 50 µM), comparison with Olmesartan) was “superior to that of Olmesartan” and the cell survival rate (MDCK cells) was “no effect”. For the same molecule, the body weight measurement [5] was “tendency for inhibiting weight gain”, the mRNA expression ([1]; ACE mRNA, 25 µM treatment group) was “mostly inhibited” and the “mRNA expression inhibition effect” value ([1]; ACE mRNA, all treatment concentrations (Telmisartan 10 or 25 µM, Olmesartan 10 or 50 µM)) was “superior to that of Olmesartan”. For the same molecule, the “mRNA expression of ACE” value [1, 9] was “did not decrease to a normal level”.

In the case of OC[C@H]1O[C@@H](c2ccc(Cl)c(Cc3ccc(O[C@H]4CCOC4)cc3)c2)[C@H](O)[C@@H](O)[C@@H]1O [Com. Ex. 17, Empagliflozin], the flexible substance [2, 7] is reported as 1.0 or less, the “content (SGLT-2 inhibitor)” value [2, 7] is reported as 97.3% and the property [2, 7] is reported as “suitable”. For the same molecule, the flexible substance [2, 8] was 1.0 or more, the “content (SGLT-2 inhibitor)” value [2, 8] was 95.1% and the property [2, 8] was “suitable”. The flexible substance ([2]; Initial) was 0.1 or less, the “content (SGLT-2 inhibitor)” value ([2]; Initial) was 99.9% and the property ([2]; Initial) was “suitable”.

In the case of OC[C@H]1O[C@@H](c2ccc(Cl)c(Cc3ccc(O[C@H]4CCOC4)cc3)c2)[C@H](O)[C@@H](O)[C@@H]1O [Empagliflozin, (1S)-1,5-anhydro-1-C-[4-chloro-3-[[4-[[(3S)-tetrahydro-3-furanyl]oxy]phenyl]methyl]phenyl]-D-glucitol], the “mRNA expression of ACE” value [1, 9] is reported as “did not decrease to a normal level”.

For CCCc1nc(C(C)(C)O)c(C(=O)O)n1Cc1ccc(-c2ccccc2-c2nnn[nH]2)cc1 [Olmesartan], the cell survival rate (A549 cells) was “no effect” and the cell survival rate (MDCK cells) was “no effect”.

In the case of CCCc1nc2c(C)cc(-c3nc4ccccc4n3C)cc2n1Cc1ccc(-c2ccccc2C(=O)O)cc1 [Comparative Example 14, Telmisartan], the “mRNA expression of ACE” value [1, 6] is reported as “decrease below the normal level”.

For CCOc1ccc(Cc2cc([C@@H]3O[C@H](CO)[C@@H](O)[C@H](O)[C@H]3O)ccc2Cl)cc1 [Dapagliflozin, (1S)-1,5-anhydro-1-C-{4-chloro-3-[(4-ethoxyphenyl)methyl]phenyl}-D-glucitol], the “Cmax T/R ratio” value ([3]; Dapagliflozin 10 mg in the presence of Telmisartan 80 mg, 90% confidence interval 0.93 to1.12) was 1.02, the “AUC T/R ratio” value ([3]; Dapagliflozin 10 mg in the presence of Telmisartan 80 mg, 90% confidence interval 0.97 to 1.03) was 1.00 and the GLU ([5]; blood test) was “decreased”. For the same molecule, the “mRNA expression of ACE” value [1, 9] was “did not decrease to a normal level”.

For CCCc1nc2c(C)cc(-c3nc4ccccc4n3C)cc2n1Cc1ccc(-c2ccccc2C(=O)O)cc1 [Com. Ex. 16, Telmisartan], the flexible substance [2, 7] was 0.1 or less, the “content (ARB)” value [2, 7] was 100.1% and the property [2, 7] was “suitable”. For the same molecule, the flexible substance [2, 8] was 0.1 or less, the “content (ARB)” value [2, 8] was 100% and the property [2, 8] was “suitable”. The flexible substance ([2]; Initial) was 0.1 or less, the “content (ARB)” value ([2]; Initial) was 100.1% and the property ([2]; Initial) was “suitable”.

With CCCCC(=O)N(Cc1ccc(-c2ccccc2-c2nnn[nH]2)cc1)[C@H](C(=O)O)C(C)C [Com. Ex. 20, Valsartan] the flexible substance [2, 7] was 0.1 or more, the “content (ARB)” value [2, 7] was 99.4% and the property [2, 7] was “suitable”. The flexible substance [2, 8] was 0.1 or more, the “content (ARB)” value [2, 8] was 99.2% and the property [2, 8] was “suitable”. For the same molecule, the flexible substance ([2]; Initial) was 0.1 or less, the “content (ARB)” value ([2]; Initial) was 99.7% and the property ([2]; Initial) was “suitable”.

— patent publication EP4640223A1, “PHARMACEUTICAL COMPOSITION FOR PREVENTION OR TREATMENT OF CARDIOVASCULAR DISEASE, COMPRISING SODIUM-GLUCOSE COTRANSPORTER-2 INHIBITOR AND ANGIOTENSIN II RECEPTOR BLOCKER” (THPharm Corp., priority 2022, dated 2024)
